Assay results reported in patent US4540700A, “Treatment of diabetic complications with certain spiro-imidazolidine-diones” (Alcon Laboratories, Inc., priority 1984, dated 1985).
“And” between values parts separate entries of the source, which are not always exact repeats. Equal entries are not always repeated.

System: cataract formation in galactocemic rats
Experiment: in vivo dose response by intubation (per oral) in galactocemic rats, cataract (vacuole) formation
Parameters: species or system Charles River CD (Sprague-Dawley derived) male rats
Method: B. In vivo dose response studies were conducted to test the in vivo activity of the following compounds by intubation (per oral) in galactocemic rats on a 30% galactose diet previously described:
Stock suspensions of the test compounds and all dilutions of the compound were formulated with 0.03% by weight Tween 80.
Healthy, Charles River CD (outbred albino, Sprague-Dawley derived) male rats, aged 20-30 days, without observable ocular defects and ranging in weight from 35-45 grams, were acclimated to experimental conditions (in quarantine) for two days prior to beginning the study.
Rats were individually assigned to one of twenty-three groups according to a random number schedule. Two rats, belonging to the same drug-diet treatment group, were housed per cage. Treatment and control groups consisted of six (6) rats each with no replacement in the event of death, and were designated as follows:
Lenses of all eyes were examined with a hand-held ophthalmoscope in the early stages of cataract development and a penlight for the stages, snowflake-like, snowflake, and nuclear cataract. Lens grading occurred every day for the first ten study days, and then every other day until study Day 14.
The relative potency determination was made at 7 drug levels over half log dose intervals. The response (percent cataracts formed and/or the time to cataract formation) was plotted against mg/kg and/or moles/kg.
The study was directed to the suppression and/or elimination of the initial stages of cataract development characterized by vacuoles or snowflake-likeopacities only. It was assumed therefore that suppression and/or elimination of vacuoles or lens opacification by the test drugs affects the transport, absorption and/or metabolism of galactose in such a manner as to prevent subsequent osmotic disturbances normally leading to tissue degeneration and advanced cataract. Advanced cataract defined as stages 2-4 of the Sipple classification was assumed to be of secondary importance to the etiology of cataract inhibition.
In the event where cataract stage other than vacuole formed, such as snowflake-like opacities, this cataract was counted similarly as vacuole in percent cataract formation.
This study yielded this expected effect in the control groups.
All animals were fed Purina Laboratory Chow and water, ad libitum, for the two day acclimation period. All drugs were dosed orally by intubation using an animal feeding needle (Popper and Sons), 18 or 20 gauge, attached to a 1 or 3 ml syringe. Once the dosing time schedule was established, the schedule was followed throughout the study to compensate for any diurnal variation.
The animals were kept on a twelve hour day/night cycle. The temperature and humidity were determined each day at the scheduled dosing time of 1:00 p.m.
The animals were weighed every other day and adjustments to dosage amounts to compensate for weight gain were made each day prior to the dose time. All food was routinely withheld from all animal groups for four hours (9:00 a.m.) prior to the drug dose and restored two hours (3:00 p.m.) post-dose. Otherwise sufficient amounts of chow or diet mixture were maintained in the food hopper to allow the animals to eat ad libitum. There were two days of drug dosage with the animals remaining on Purina Laboratory Chow (Days 1 and 2). The 30% galactose diet mixture was introduced to the animals two hours post-dose on Day 3 which constituted Day 1 of the study.
All eyes were examined with a hand-held ophthalmoscope and/or penlight at the times designated in the Experimental Design section.
It has been found in previous studies that dilation of the eye with a mydriactic (i.e. Mydriacyl) is not necessary for accurate grading, due to the semi-transparent nature of the rat iris. In the early stages (i.e., grades -, ±, and +) the lens was observed by reflecting the ophthalmoscope beam off the retina back through the lens and iris. Using this technique, vacuoles appear as dark, almost opaque patches. […]

O=C1NC(=O)C2(CCOc3ccc(F)cc32)N1 (racemic) [Sarges Racemic, dl-spiro-(6-fluorochroman-4,4'-imidazolidine)-2',5'-dione, reference compound]
Percent of Rat Eyes With at Least Vacuoles Formed (0.126 mg/kg p.o., Day 0): 0%
Percent of Rat Eyes With at Least Vacuoles Formed (0.126 mg/kg p.o., Day 1): 0%
Percent of Rat Eyes With at Least Vacuoles Formed (0.126 mg/kg p.o., Day 2): 0%
Percent of Rat Eyes With at Least Vacuoles Formed (0.126 mg/kg p.o., Day 3): 0%
Percent of Rat Eyes With at Least Vacuoles Formed (0.126 mg/kg p.o., Day 4): 0%
Percent of Rat Eyes With at Least Vacuoles Formed (0.126 mg/kg p.o., Day 5): 0%
Percent of Rat Eyes With at Least Vacuoles Formed (0.126 mg/kg p.o., Day 6): 33%
Percent of Rat Eyes With at Least Vacuoles Formed (0.126 mg/kg p.o., Day 7): 33%
Percent of Rat Eyes With at Least Vacuoles Formed (0.126 mg/kg p.o., Day 8): 50%
Percent of Rat Eyes With at Least Vacuoles Formed (0.126 mg/kg p.o., Day 9): 58%
Percent of Rat Eyes With at Least Vacuoles Formed (0.126 mg/kg p.o., Day 10): 83%
Percent of Rat Eyes With at Least Vacuoles Formed (0.126 mg/kg p.o., Day 12): 83%
Percent of Rat Eyes With at Least Vacuoles Formed (0.126 mg/kg p.o., Day 14): 100%
Percent of Rat Eyes With at Least Vacuoles Formed (0.4 mg/kg p.o., Day 0): 0%
Percent of Rat Eyes With at Least Vacuoles Formed (0.4 mg/kg p.o., Day 1): 0%
Percent of Rat Eyes With at Least Vacuoles Formed (0.4 mg/kg p.o., Day 2): 0%
Percent of Rat Eyes With at Least Vacuoles Formed (0.4 mg/kg p.o., Day 3): 0%
Percent of Rat Eyes With at Least Vacuoles Formed (0.4 mg/kg p.o., Day 4): 0%
Percent of Rat Eyes With at Least Vacuoles Formed (0.4 mg/kg p.o., Day 5): 0%
Percent of Rat Eyes With at Least Vacuoles Formed (0.4 mg/kg p.o., Day 6): 33%
Percent of Rat Eyes With at Least Vacuoles Formed (0.4 mg/kg p.o., Day 7): 33%
Percent of Rat Eyes With at Least Vacuoles Formed (0.4 mg/kg p.o., Day 8): 50%
Percent of Rat Eyes With at Least Vacuoles Formed (0.4 mg/kg p.o., Day 9): 58%
Percent of Rat Eyes With at Least Vacuoles Formed (0.4 mg/kg p.o., Day 10): 83%
Percent of Rat Eyes With at Least Vacuoles Formed (0.4 mg/kg p.o., Day 12): 83%
Percent of Rat Eyes With at Least Vacuoles Formed (0.4 mg/kg p.o., Day 14): 100%
Percent of Rat Eyes With at Least Vacuoles Formed (1.26 mg/kg p.o., Day 0): 0%
Percent of Rat Eyes With at Least Vacuoles Formed (1.26 mg/kg p.o., Day 1): 0%
Percent of Rat Eyes With at Least Vacuoles Formed (1.26 mg/kg p.o., Day 2): 0%
Percent of Rat Eyes With at Least Vacuoles Formed (1.26 mg/kg p.o., Day 3): 0%
Percent of Rat Eyes With at Least Vacuoles Formed (1.26 mg/kg p.o., Day 4): 0%
Percent of Rat Eyes With at Least Vacuoles Formed (1.26 mg/kg p.o., Day 5): 0%
Percent of Rat Eyes With at Least Vacuoles Formed (1.26 mg/kg p.o., Day 6): 0%
Percent of Rat Eyes With at Least Vacuoles Formed (1.26 mg/kg p.o., Day 7): 0%
Percent of Rat Eyes With at Least Vacuoles Formed (1.26 mg/kg p.o., Day 8): 8%
Percent of Rat Eyes With at Least Vacuoles Formed (1.26 mg/kg p.o., Day 9): 17%
Percent of Rat Eyes With at Least Vacuoles Formed (1.26 mg/kg p.o., Day 10): 83%
Percent of Rat Eyes With at Least Vacuoles Formed (1.26 mg/kg p.o., Day 12): 100%
Percent of Rat Eyes With at Least Vacuoles Formed (1.26 mg/kg p.o., Day 14): 100%
Percent of Rat Eyes With at Least Vacuoles Formed (4.0 mg/kg p.o., Day 0): 0%
Percent of Rat Eyes With at Least Vacuoles Formed (4.0 mg/kg p.o., Day 1): 0%
Percent of Rat Eyes With at Least Vacuoles Formed (4.0 mg/kg p.o., Day 2): 0%
Percent of Rat Eyes With at Least Vacuoles Formed (4.0 mg/kg p.o., Day 3): 0%
Percent of Rat Eyes With at Least Vacuoles Formed (4.0 mg/kg p.o., Day 4): 0%
Percent of Rat Eyes With at Least Vacuoles Formed (4.0 mg/kg p.o., Day 5): 0%
Percent of Rat Eyes With at Least Vacuoles Formed (4.0 mg/kg p.o., Day 6): 0%
Percent of Rat Eyes With at Least Vacuoles Formed (4.0 mg/kg p.o., Day 7): 0%
Percent of Rat Eyes With at Least Vacuoles Formed (4.0 mg/kg p.o., Day 8): 0%
Percent of Rat Eyes With at Least Vacuoles Formed (4.0 mg/kg p.o., Day 9): 0%
Percent of Rat Eyes With at Least Vacuoles Formed (4.0 mg/kg p.o., Day 10): 0%
Percent of Rat Eyes With at Least Vacuoles Formed (4.0 mg/kg p.o., Day 12): 17% and 16.7%
Percent of Rat Eyes With at Least Vacuoles Formed (4.0 mg/kg p.o., Day 14): 50%
Percent of Rat Eyes With at Least Vacuoles Formed (12.6 mg/kg p.o., Day 0): 0%
Percent of Rat Eyes With at Least Vacuoles Formed (12.6 mg/kg p.o., Day 1): 0%
Percent of Rat Eyes With at Least Vacuoles Formed (12.6 mg/kg p.o., Day 2): 0%
Percent of Rat Eyes With at Least Vacuoles Formed (12.6 mg/kg p.o., Day 3): 0%
Percent of Rat Eyes With at Least Vacuoles Formed (12.6 mg/kg p.o., Day 4): 0%
Percent of Rat Eyes With at Least Vacuoles Formed (12.6 mg/kg p.o., Day 5): 0%
Percent of Rat Eyes With at Least Vacuoles Formed (12.6 mg/kg p.o., Day 6): 0%
Percent of Rat Eyes With at Least Vacuoles Formed (12.6 mg/kg p.o., Day 7): 0%
Percent of Rat Eyes With at Least Vacuoles Formed (12.6 mg/kg p.o., Day 8): 0%
Percent of Rat Eyes With at Least Vacuoles Formed (12.6 mg/kg p.o., Day 9): 0%
Percent of Rat Eyes With at Least Vacuoles Formed (12.6 mg/kg p.o., Day 10): 0%
Percent of Rat Eyes With at Least Vacuoles Formed (12.6 mg/kg p.o., Day 12): 0%
Percent of Rat Eyes With at Least Vacuoles Formed (12.6 mg/kg p.o., Day 14): 8% and 0.3%
Percent of Rat Eyes With at Least Vacuoles Formed (40 mg/kg p.o., Day 0): 0%
Percent of Rat Eyes With at Least Vacuoles Formed (40 mg/kg p.o., Day 1): 0%
Percent of Rat Eyes With at Least Vacuoles Formed (40 mg/kg p.o., Day 2): 0%
Percent of Rat Eyes With at Least Vacuoles Formed (40 mg/kg p.o., Day 3): 0%
Percent of Rat Eyes With at Least Vacuoles Formed (40 mg/kg p.o., Day 4): 0%
Percent of Rat Eyes With at Least Vacuoles Formed (40 mg/kg p.o., Day 5): 0%
Percent of Rat Eyes With at Least Vacuoles Formed (40 mg/kg p.o., Day 6): 0%
Percent of Rat Eyes With at Least Vacuoles Formed (40 mg/kg p.o., Day 7): 0%
Percent of Rat Eyes With at Least Vacuoles Formed (40 mg/kg p.o., Day 8): 0%
Percent of Rat Eyes With at Least Vacuoles Formed (40 mg/kg p.o., Day 9): 0%
Percent of Rat Eyes With at Least Vacuoles Formed (40 mg/kg p.o., Day 10): 0%
Percent of Rat Eyes With at Least Vacuoles Formed (40 mg/kg p.o., Day 12): 0%
Percent of Rat Eyes With at Least Vacuoles Formed (40 mg/kg p.o., Day 14): 0%
